Where a name gives a salt, the structure may show the parent alone.
Assay: In vitro rat plasma stability assay, formation of tafamidis
Assay type: in vitro ADME
Conditions: 37° C., 2 µM test compound
Experimental: A stability assay in plasma (rat or human) was used to evaluate the ability of a compound provided herein to convert to an active TTR stabilizer. The test compound was added to plasma and incubated at 37° C. in a water bath at a concentration of 2 µM. At each time point (0, 10, 30, 60 and 120 min or 0, 60, 120, 180 and 240 min), stop solution (tolbutamide plus labetalol) was added to precipitate protein and mixed thoroughly. After centrifugation, an aliquot of supernatant was analyzed by LC-MS/MS. The percentage of formation of active agent was calculated at each time point.

SMILES	Formation of tafamidis at 120 min
NCCCOC(=O)c1ccc2nc(-c3cc(Cl)cc(Cl)c3)oc2c1 [Compound 25, 3-aminopropyl 2-(3,5-dichlorophenyl)benzo[d]oxazole-6-carboxylate hydrochloride]	A (A is <25%)
C[N+](C)(C)CCOC(=O)c1ccc2nc(-c3cc(Cl)cc(Cl)c3)oc2c1.[Cl-] [Compound 29, 2-((2-(3,5-dichlorophenyl)benzo[d]oxazole-6-carbonyl)oxy)-N,N,N-trimethylethanaminium chloride]	A (A is <25%)
O=C(OC1CCOC1=O)c1ccc2nc(-c3cc(Cl)cc(Cl)c3)oc2c1 (stereo not shown) [Compound 21]	B (B is ≥25 to <50%)
O=C(OCCC[P+](c1ccccc1)(c1ccccc1)c1ccccc1)c1ccc2nc(-c3cc(Cl)cc(Cl)c3)oc2c1.[Br-] [Compound 4, (3-(2-(3,5-Dichlorophenyl)benzo[d]oxazole-6-carbonyloxy)propyl) triphenylphosphonium bromide]	A (A is <25%)
CC(C)(C)OC(=O)N1CCC(OC(=O)c2ccc3nc(-c4cc(Cl)cc(Cl)c4)oc3c2)C1 (stereo not shown) [Compound 16, 1-(tert-butoxycarbonyl)pyrrolidin-3-yl 2-(3,5-dichlorophenyl) benzo[d]oxazole-6-carboxylate]	B (B is ≥25 to <50%)
CN(C)C(CO)COC(=O)c1ccc2nc(-c3cc(Cl)cc(Cl)c3)oc2c1 (stereo not shown) [Compound 55, 2-(dimethylamino)-3-hydroxypropyl 2-(3,5-dichlorophenyl) benzo [d]oxazole-6-carboxylate]	D (D is ≥75%)
CC(C)(C)OC(=O)N[C@@H](Cc1ccc(OC(=O)c2ccc3nc(-c4cc(Cl)cc(Cl)c4)oc3c2)cc1)C(=O)OCc1ccccc1 [Compound 18, (S)-4-(3-(benzyloxy)-2-((tert-butoxycarbonyl)amino)-3-oxopropyl) phenyl 2-(3,5-dichlorophenyl)benzo[d]oxazole-6-carboxylate]	C (C is ≥50 to <75%)
CN(C)CCCCCOC(=O)c1ccc2nc(-c3cc(Cl)cc(Cl)c3)oc2c1 [Compound 51, 5-(dimethylamino)pentyl 2-(3,5-dichlorophenyl)benzo[d] oxazole-6-carboxylate]	D (D is ≥75%)
CC(C)(C)OC(=O)N[C@@H](Cc1cccc(OC(=O)c2ccc3nc(-c4cc(Cl)cc(Cl)c4)oc3c2)c1)C(=O)OCc1ccccc1 [Compound 19, (S)-3-(3-(benzyloxy)-2-((tert-butoxycarbonyl)amino)-3-oxopropyl) phenyl 2-(3,5-dichlorophenyl)benzo[d]oxazole-6-carboxylate]	B (B is ≥25 to <50%)
CC(C)(C)OC(=O)N1CCC(OC(=O)c2ccc3nc(-c4cc(Cl)cc(Cl)c4)oc3c2)CC1 [Compound 12, 1-(tert-butoxycarbonyl)piperidin-4-yl 2-(3,5-dichlorophenyl)benzo [d]oxazole-6-carboxylate]	A (A is <25%)
Cc1oc(=O)n(C)c1COC(=O)c1ccc2nc(-c3cc(Cl)cc(Cl)c3)oc2c1 [Compound 30, (3,5-dimethyl-2-oxo-2,3-dihydrooxazol-4-yl)methyl 2-(3,5-dichlorophenyl) benzo[d]oxazole-6-carboxylate]	B (B is ≥25 to <50%)
O=C(OCCC1CCOC1)c1ccc2nc(-c3cc(Cl)cc(Cl)c3)oc2c1 (stereo not shown) [Compound 96, 2-(tetrahydrofuran-3-yl)ethyl 2-(3,5-dichlorophenyl)benzo[d] oxazole-6-carboxylate]	C (C is ≥50 to <75%)
CC(C)(C)OC(=O)NCCCOC(=O)c1ccc2nc(-c3cc(Cl)cc(Cl)c3)oc2c1 [Compound 31, 3-((tert-butoxycarbonyl)amino)propyl 2-(3,5-dichlorophenyl) benzo [d]oxazole-6-carboxylate]	C (C is ≥50 to <75%)
NCCOC(=O)c1ccc2nc(-c3cc(Cl)cc(Cl)c3)oc2c1 [Compound 15, 2-aminoethyl 2-(3,5-dichlorophenyl)benzo[d]oxazole-6-carboxylate]	A (A is <25%)
CC(=O)OCC(COC(C)=O)OC(=O)c1ccc2nc(-c3cc(Cl)cc(Cl)c3)oc2c1 [Compound 2, 2-(2-(3,5-Dichlorophenyl)benzo[d]oxazole-6-carbonyloxy)propane-1,3-diyl diacetate]	B (B is ≥25 to <50%)
C[C@@H](COC(=O)c1ccc2nc(-c3cc(Cl)cc(Cl)c3)oc2c1)N(C)C [Compound 44, (S)-2-(dimethylamino)propyl 2-(3,5-dichlorophenyl)benzo[d] oxazole-6-carboxylate]	C (C is ≥50 to <75%)
CN(C)CCOC(=O)c1ccc2nc(-c3cc(Cl)cc(Cl)c3)oc2c1 [Compound 6, 2-(dimethylamino)ethyl 2-(3,5-dichlorophenyl)benzo-[d]oxazole-6-carboxylate hydrochloride]	D (D is ≥75%)
CC(C)(C)OC(=O)N[C@@H](Cc1cccc(OC(=O)c2ccc3nc(-c4cc(Cl)cc(Cl)c4)oc3c2)c1)C(=O)O [Compound 20, (S)-2-((tert-butoxycarbonyl)amino)-3-(3-((2-(3,5-dichlorophenyl)benzo [d]oxazole-6-carbonyl)oxy)phenyl)propanoic acid]	B (B is ≥25 to <50%)
CC(C)(C)OC(=O)N[C@@H](Cc1ccc(OC(=O)c2ccc3nc(-c4cc(Cl)cc(Cl)c4)oc3c2)cc1)C(=O)O [Compound 22, (S)-2-((tert-butoxycarbonyl)amino)-3-(4-((2-(3,5-dichlorophenyl)benzo[d]oxazole-6-carbonyl)oxy)phenyl)propanoic acid]	D (D is ≥75%)
CN(CCOC(=O)c1ccc2nc(-c3cc(Cl)cc(Cl)c3)oc2c1)C(=O)OC(C)(C)C [Compound 8, 2-((tert-butoxycarbonyl)(methyl)amino)ethyl 2-(3,5-dichlorophenyl) benzo[d] oxazole-6-carboxylate]	D (D is ≥75%)
O=C(OC[C@H]1O[C@@H](O)C(O)[C@H](O)C1O)c1ccc2nc(-c3cc(Cl)cc(Cl)c3)oc2c1 (stereo partly shown) [Compound 5, (3,4,5,6-Tetrahydroxytetrahydro-2H-pyran-2-yl)methyl 2-(3,5-Dichlorophenyl) Benzo[d]oxazole-6-Carboxylate]	A (A is <25%)
Cc1oc(=O)oc1COC(=O)c1ccc2nc(-c3cc(Cl)cc(Cl)c3)oc2c1 [Compound 24, (5-methyl-2-oxo-1,3-dioxol-4-yl)methyl 2-(3,5-dichlorophenyl)benzo[d] oxazole-6-carboxylate]	D (D is ≥75%)
CNCCOC(=O)c1ccc2nc(-c3cc(Cl)cc(Cl)c3)oc2c1 [Compound 9, 2-(methylamino)ethyl 2-(3,5-dichlorophenyl)benzo[d]oxazole-6-carboxylate hydrochloride]	A (A is <25%)

Continued, values first:

Formation of tafamidis at 120 min	SMILES
B (B is ≥25 to <50%)	CN1CCN(CCOC(=O)c2ccc3nc(-c4cc(Cl)cc(Cl)c4)oc3c2)CC1 [Compound 93]
C (C is ≥50 to <75%)	O=C(OCc1ncco1)c1ccc2nc(-c3cc(Cl)cc(Cl)c3)oc2c1 [Compound 91]
B (B is ≥25 to <50%)	CC(C)(C)OC(=O)N[C@H](Cc1ccc(OC(=O)c2ccc3nc(-c4cc(Cl)cc(Cl)c4)oc3c2)cc1)C(=O)O [Compound 70]
B (B is ≥25 to <50%)	CC(C)(C)OC(=O)N[C@H](Cc1cccc(OC(=O)c2ccc3nc(-c4cc(Cl)cc(Cl)c4)oc3c2)c1)C(=O)O [Compound 72]
A (A is <25%)	N[C@H](Cc1ccc(OC(=O)c2ccc3nc(-c4cc(Cl)cc(Cl)c4)oc3c2)cc1)C(=O)O [Compound 71]
D (D is ≥75%)	O=C(OCCCN1CCS(=O)(=O)CC1)c1ccc2nc(-c3cc(Cl)cc(Cl)c3)oc2c1 [Compound 84]
A (A is <25%)	O=C(NCC(F)(F)F)c1ccc2nc(-c3cc(Cl)cc(Cl)c3)oc2c1 [Compound 67, 2-(3,5-dichlorophenyl)-N-(2,2,2-trifluoroethyl)benzo[d] oxazole-6-carboxamide]
D (D is ≥75%)	O=C(OCCCC1CCOC1)c1ccc2nc(-c3cc(Cl)cc(Cl)c3)oc2c1 (stereo not shown) [Compound 100]
D (D is ≥75%)	O=C(OC1CCOC1)c1ccc2nc(-c3cc(Cl)cc(Cl)c3)oc2c1 (stereo not shown) [Compound 95]
D (D is ≥75%)	O=C(OCCCN1CCOCC1)c1ccc2nc(-c3cc(Cl)cc(Cl)c3)oc2c1 [Compound 81]
A (A is <25%)	CC(C)(C)OC(=O)N[C@H](Cc1ccc(OC(=O)c2ccc3nc(-c4cc(Cl)cc(Cl)c4)oc3c2)cc1)C(=O)OCc1ccccc1 [Compound 69]
B (B is ≥25 to <50%)	CC(C)(C)OC(=O)N[C@H](Cc1cccc(OC(=O)c2ccc3nc(-c4cc(Cl)cc(Cl)c4)oc3c2)c1)C(=O)OCc1ccccc1 [Compound 63]
C (C is ≥50 to <75%)	CN1CCN(CCCOC(=O)c2ccc3nc(-c4cc(Cl)cc(Cl)c4)oc3c2)CC1 [Compound 94]
D (D is ≥75%)	CN1C[C@@H](O)[C@H](OC(=O)c2ccc3nc(-c4cc(Cl)cc(Cl)c4)oc3c2)C1 [Compound 56, (3R,4R)-4-hydroxy-1-methylpyrrolidin-3-yl 2-(3,5-dichlorophenyl)benzo[d] oxazole-6-carboxylate]
A (A is <25%)	O=C(OCCC1CCCO1)c1ccc2nc(-c3cc(Cl)cc(Cl)c3)oc2c1 (stereo not shown) [Compound 97]
C (C is ≥50 to <75%)	O=C(OCCCC1CCCO1)c1ccc2nc(-c3cc(Cl)cc(Cl)c3)oc2c1 (stereo not shown) [Compound 101]
A (A is <25%)	O=C(NCCCO)c1ccc2nc(-c3cc(Cl)cc(Cl)c3)oc2c1 [Compound 68, 2-(3,5-dichlorophenyl)-N-(3-hydroxypropyl)benzo[d]oxazole-6-carboxamide]

— US20230287021A1, “COMPOUNDS, COMPOSITIONS AND METHODS FOR STABILIZING TRANSTHYRETIN AND INHIBITING TRANSTHYRETIN MISFOLDING” (Protego Biopharma, Inc., priority 2020, published 2023)
